According to patent US20230085307A1, “PYRIDAZINONE COMPOUND AND HERBICIDE” (NISSAN CHEMICAL CORPORATION, priority 2019, published 2023):

Key:
oval-leafed pondweed = assay: Test Example 1: herbicidal activity, application before weed generation under submerged conditions (Table 16, symbol C); type: in vivo, oval-leafed pondweed (Monochoria vaginalis); conditions: 320 g/ha applied herbicide
How it was run: (§1)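 Alluvial soil was flooded to 4 cm depth, weed seeds were sown mixed and 2.5-leaf rice seedlings were transplanted. On sowing day, the compound's emulsion, diluted in water to a set dose, was applied to the water surface. Plants grew at 25–30 °C and were scored 0–5 after three weeks.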

velvetleaf = assay: Test Example 4: herbicidal effect by soil treatment (Table 19, symbol M); type: in vivo, velvetleaf (Abutilon theophrasti); conditions: amount of applied herbicide 320 g/ha
How it was run: (§2)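 Herbicidal effect was rated 3 weeks after treatment, using the scoring criteria of an earlier test. The compound, formulated as an emulsion and diluted in water to a set herbicide amount, had been sprayed uniformly on soil over freshly sown seeds. Growth took place in a greenhouse at 25° C. to 30° C.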

green foxtail = assay: Test Example 4: herbicidal effect by soil treatment (Table 19, symbol G); type: in vivo, green foxtail (Setaria viridis); conditions: amount of applied herbicide 320 g/ha
How it was run: as §2

windgrass = assay: Test Example 4: herbicidal effect by soil treatment (Table 19, symbol L); type: in vivo, windgrass (Apera spica-venti); conditions: amount of applied herbicide 320 g/ha
How it was run: as §2

Italian ryegrass = assay: Test Example 4: herbicidal effect by soil treatment (Table 19, symbol K); type: in vivo, Italian ryegrass (Lolium multiflorum); conditions: amount of applied herbicide 320 g/ha
How it was run: as §2

barnyard grass [1] = assay: Test Example 4: herbicidal effect by soil treatment (Table 19, symbol H); type: in vivo, barnyard grass (Echinochloa crus-galli); conditions: amount of applied herbicide 320 g/ha
How it was run: as §2

lambsquarters = assay: Test Example 4: herbicidal effect by soil treatment (Table 19, symbol O); type: in vivo, lambsquarters (Chenopodium album); conditions: amount of applied herbicide 320 g/ha
How it was run: as §2

wild oat = assay: Test Example 4: herbicidal effect by soil treatment (Table 19, symbol I); type: in vivo, wild oat (Avena fatua); conditions: amount of applied herbicide 320 g/ha
How it was run: as §2

southern crabgrass = assay: Test Example 4: herbicidal effect by soil treatment (Table 19, symbol F); type: in vivo, southern crabgrass (Digitaria ciliaris); conditions: amount of applied herbicide 320 g/ha
How it was run: as §2

redroot pigweed = assay: Test Example 4: herbicidal effect by soil treatment (Table 19, symbol N); type: in vivo, redroot pigweed (Amaranthus retroflexus); conditions: amount of applied herbicide 320 g/ha
How it was run: as §2

rice flat sedge = assay: Test Example 3: herbicidal effect by foliage application, Wagner pot (Table 18, symbol E); type: in vivo, rice flat sedge (Cyperus iria); conditions: amount of applied herbicide 320 g/ha
How it was run: (§3)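 Plants were sown in alluvial soil held under 0.1–0.5 cm standing water and grown 14 days in a greenhouse at 25–30 °C. An emulsifiable formulation, water-diluted to the set dose, was then sprayed onto the foliage, and effects were scored three weeks later using previously defined criteria.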

Chinese sprangletop = assay: Test Example 3: herbicidal effect by foliage application, Wagner pot (Table 18, symbol D); type: in vivo, chinese sprangletop (Leptochloa chinensis); conditions: amount of applied herbicide 320 g/ha
How it was run: as §3

barnyard grass [2] = assay: Test Example 3: herbicidal effect by foliage application, Wagner pot (Table 18, symbol H); type: in vivo, barnyard grass (Echinochloa crus-galli); conditions: amount of applied herbicide 320 g/ha
How it was run: as §3

chickweed = assay: Test Example 4: herbicidal effect by soil treatment (Table 19, symbol P); type: in vivo, common chickweed (Stellaria media); conditions: amount of applied herbicide 320 g/ha
How it was run: as §2

Japanese bulrush = assay: Test Example 1: herbicidal activity, application before weed generation under submerged conditions (Table 16, symbol B); type: in vivo, Japanese bulrush (Schoenoplectus juncoides); conditions: 320 g/ha applied herbicide
How it was run: as §1

persian speedwell = assay: Test Example 4: herbicidal effect by soil treatment (Table 19, symbol R); type: in vivo, Persian speedwell (Veronica persica); conditions: amount of applied herbicide 320 g/ha
How it was run: as §2

late watergrass = assay: Test Example 1: herbicidal activity, application before weed generation under submerged conditions (Table 16, symbol A); type: in vivo, late watergrass (Echinochloa oryzicola); conditions: 320 g/ha applied herbicide
How it was run: as §1

blackgrass = assay: Test Example 4: herbicidal effect by soil treatment (Table 19, symbol J); type: in vivo, blackgrass (Alopecurus myosuroides); conditions: amount of applied herbicide 320 g/ha
How it was run: as §2

SMILES	Herbicidal effect on C: oval-leafed pondweed (grade 0-5) (oval-leafed pondweed)	herbicidal effect, M: velvetleaf (velvetleaf)	herbicidal effect, G: green foxtail (green foxtail)	herbicidal effect, L: windgrass (windgrass)	herbicidal effect, K: Italian ryegrass (Italian ryegrass)	herbicidal effect, H: barnyard grass (barnyard grass [1])	herbicidal effect, O: lambsquarters (lambsquarters)	herbicidal effect, I: wild oat (wild oat)	herbicidal effect, F: southern crabgrass (southern crabgrass)	herbicidal effect, N: redroot pigweed (redroot pigweed)	herbicidal effect on E: rice flat sedge (rice flat sedge)	herbicidal effect on D: Chinese sprangletop (Chinese sprangletop)	herbicidal effect on H: barnyard grass (barnyard grass [2])	herbicidal effect, P: chickweed (chickweed)	Herbicidal effect on B: Japanese bulrush (grade 0-5) (Japanese bulrush)	herbicidal effect, R: persian speedwell (persian speedwell)	Herbicidal effect on A: late watergrass (grade 0-5) (late watergrass)	herbicidal effect, J: blackgrass (blackgrass)
CCCC(=O)Oc1c(C)nn(C)c(=O)c1-c1c(-c2ccc(Cl)cc2OC)sc2ccc(F)cc12 [2-369]	2 (Herbicidal rate of 20% or more and less than 40%)	0 (Herbicidal rate of 5% or less (almost no effect))	0 (Herbicidal rate of 5% or less (almost no effect))	3 (Herbicidal rate of 40% or more and less than 70%)	0 (Herbicidal rate of 5% or less (almost no effect))	0 (Herbicidal rate of 5% or less (almost no effect))	0 (Herbicidal rate of 5% or less (almost no effect))	0 (Herbicidal rate of 5% or less (almost no effect))	0 (Herbicidal rate of 5% or less (almost no effect))	0 (Herbicidal rate of 5% or less (almost no effect))	4 (Herbicidal rate of 70% or more and less than 90%)	5 (Herbicidal rate of 90% or more (almost completely withered))	4 (Herbicidal rate of 70% or more and less than 90%)	0 (Herbicidal rate of 5% or less (almost no effect))	0 (Herbicidal rate of 5% or less (almost no effect))	0 (Herbicidal rate of 5% or less (almost no effect))	0 (Herbicidal rate of 5% or less (almost no effect))	0 (Herbicidal rate of 5% or less (almost no effect))
Cc1nn(C)c(=O)c(-c2c(-c3ccc(OC(F)F)cc3)sc3ccc(Cl)cc23)c1O [2-374]	0 (Herbicidal rate of 5% or less (almost no effect))	3 (Herbicidal rate of 40% or more and less than 70%)	1 (Herbicidal rate of 5% or more and less than 20%)	5 (Herbicidal rate of 90% or more (almost completely withered))	4 (Herbicidal rate of 70% or more and less than 90%)	4 (Herbicidal rate of 70% or more and less than 90%)	5 (Herbicidal rate of 90% or more (almost completely withered))	0 (Herbicidal rate of 5% or less (almost no effect))	4 (Herbicidal rate of 70% or more and less than 90%)	4 (Herbicidal rate of 70% or more and less than 90%)	5 (Herbicidal rate of 90% or more (almost completely withered))	4 (Herbicidal rate of 70% or more and less than 90%)	5 (Herbicidal rate of 90% or more (almost completely withered))	3 (Herbicidal rate of 40% or more and less than 70%)	0 (Herbicidal rate of 5% or less (almost no effect))	5 (Herbicidal rate of 90% or more (almost completely withered))	3 (Herbicidal rate of 40% or more and less than 70%)	3 (Herbicidal rate of 40% or more and less than 70%)
